Among the data in patent US20260159498A1, “AKT3 MODULATORS” (GEORGIAMUNE LLC, priority 2021, published 2026) are IC50 values, retold here.

The experiment has as its target T1, Akt3 (Homo sapiens, UniProt Q9Y243).
T1 construct: endogenous in cells; host or cells: human CD4+/CD45RA+/CD25- naive T cells under Treg induction conditions
Put plainly: Akt3 inhibition activity. The experiment is classed as cell-based.

What is called IC50 is the concentration that gives 50% inhibition.

Structures are written as SMILES.

T1 sequence (Q9Y243 whole entry): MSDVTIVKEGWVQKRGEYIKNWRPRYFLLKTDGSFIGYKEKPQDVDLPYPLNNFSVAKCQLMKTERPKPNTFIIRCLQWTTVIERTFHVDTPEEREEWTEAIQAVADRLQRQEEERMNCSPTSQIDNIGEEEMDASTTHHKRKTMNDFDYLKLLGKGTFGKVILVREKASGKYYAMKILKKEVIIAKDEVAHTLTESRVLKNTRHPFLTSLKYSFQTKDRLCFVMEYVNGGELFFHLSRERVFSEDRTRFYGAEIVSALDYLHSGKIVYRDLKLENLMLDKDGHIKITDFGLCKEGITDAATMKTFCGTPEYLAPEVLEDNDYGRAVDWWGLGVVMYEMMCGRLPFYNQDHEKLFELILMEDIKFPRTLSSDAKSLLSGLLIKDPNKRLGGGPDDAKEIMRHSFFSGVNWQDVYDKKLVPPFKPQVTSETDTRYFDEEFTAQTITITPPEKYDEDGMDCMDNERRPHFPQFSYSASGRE

For the compound `Cc1cc(Nc2ccncc2)cc(N2Cc3cc(Nc4ccncc4)ccc3C2=O)c1` [Compound 26, 2-(3-methyl-5-(pyridin-4-ylamino)phenyl)-5-(pyridin-4-ylamino)isoindolin-1-one], the IC50 is below 1000 nM.
As to `Cc1ccc(N2Cc3cc(Nc4ccncc4)ccc3C2=O)cc1Nc1ccncc1` [Compound 27, 2-(4-methyl-3-(pyridin-4-ylamino)phenyl)-5-(pyridin-4-ylamino)isoindolin-1-one], the IC50 was below 1000 nM.
Take `Cc1cc(Nc2ccncc2)cc2c1C(=O)N(c1cccc(Nc3ccncc3)c1)C2` [Compound 30, 7-methyl-5-(pyridin-4-ylamino)-2-(3-(pyridin-4-ylamino)phenyl)isoindolin-1-one]: the IC50 is below 1000 nM.
Turning to `Cc1cc2c(cc1Nc1ccncc1)CN(c1cccc(Nc3ccncc3)c1)C2=O` [Compound 31, 6-methyl-5-(pyridin-4-ylamino)-2-(3-(pyridin-4-ylamino)phenyl)isoindolin-1-one], the IC50 was below 5000 nM.
To `O=C1c2ccc(Nc3ccncc3)c(F)c2CN1c1cccc(Nc2ccncc2)c1` [Compound 32, 4-fluoro-5-(pyridin-4-ylamino)-2-(3-(pyridin-4-ylamino)phenyl)isoindolin-1-one] belongs below 5000 nM; to `O=C1c2cc(F)c(Nc3ccncc3)cc2CN1c1cccc(Nc2ccncc2)c1` [Compound 33, 6-fluoro-5-(pyridin-4-ylamino)-2-(3-(pyridin-4-ylamino)phenyl)isoindolin-1-one], below 1000 nM; to `O=C1c2c(F)cc(Nc3ccncc3)cc2CN1c1cccc(Nc2ccncc2)c1` [Compound 34, 7-fluoro-5-(pyridin-4-ylamino)-2-(3-(pyridin-4-ylamino)phenyl)isoindolin-1-one], below 5000 nM.
Take `O=C1c2ccc(Nc3ccncc3)cc2CN1c1cc(F)cc(Nc2ccncc2)c1` [Compound 37, 2-(3-fluoro-5-(pyridin-4-ylamino)phenyl)-5-(pyridin-4-ylamino)isoindolin-1-one]: the IC50 was below 2000 nM.
`O=C1c2ccc(Nc3ccncc3)cc2CN1c1ccc(F)c(Nc2ccncc2)c1` [Compound 38, 2-(4-fluoro-3-(pyridin-4-ylamino)phenyl)-5-(pyridin-4-ylamino)isoindolin-1-one] had an IC50 below 1000 nM.
The compound `Cc1cc(Nc2ccc(-c3nc4cc(Nc5ccnc(C)c5)ccc4o3)cc2)ccn1` [Compound 39, N-(2-methylpyridin-4-yl)-2-(4-((2-methylpyridin-4-yl)amino)phenyl)benzo[d]oxazol-5-amine] had an IC50 below 5000 nM.
As to `Cc1cc(Nc2cccc(-c3nc4cc(Nc5ccnc(C)c5)ccc4o3)c2)ccn1` [Compound 40, N-(2-methylpyridin-4-yl)-2-(3-((2-methylpyridin-4-yl)amino)phenyl)benzo[d]oxazol-5-amine], the IC50 is below 2000 nM.
Consider `Cc1cc(Nc2ccc(-c3nc4ccc(Nc5ccnc(C)c5)cc4o3)cc2)ccn1` [Compound 41, N-(2-methylpyridin-4-yl)-2-(4-((2-methylpyridin-4-yl)amino)phenyl)benzo[d]oxazol-6-amine], for which the IC50 is below 5000 nM.
`Cc1cc(Nc2cccc(-c3nc4ccc(Nc5ccnc(C)c5)cc4o3)c2)ccn1` [Compound 42, N-(2-methylpyridin-4-yl)-2-(3-((2-methylpyridin-4-yl)amino)phenyl)benzo[d]oxazol-6-amine]: the 50% inhibitory concentration (IC50) is below 5000 nM.
Take `Cc1cc(Nc2ccc3oc(-c4cccc(Nc5ccc(F)cc5)c4)nc3c2)ccn1` [Compound 43, 2-(3-((4-fluorophenyl)amino)phenyl)-N-(2-methylpyridin-4-yl)benzo[d]oxazol-5-amine]: the IC50 was below 5000 nM.
Consider `Cc1cc(Nc2cc(C)c3c(c2)CN(c2cccc(Nc4ccncc4)c2)C3=O)ccn1` [Compound 44, 7-methyl-5-((2-methylpyridin-4-yl)amino)-2-(3-(pyridin-4-ylamino)phenyl)isoindolin-1-one], for which the IC50 is below 1000 nM.
For `Cc1cc(Nc2cccc(N3Cc4cc(Nc5ccnc(C)c5)cc(C)c4C3=O)c2)ccn1` [Compound 45, 7-methyl-5-((2-methylpyridin-4-yl)amino)-2-(3-((2-methylpyridin-4-yl)amino)phenyl)isoindolin-1-one], the IC50 was below 1000 nM.
